{
  "source": "patent US6776984B1",
  "about": "“Induced regeneration and repair of damaged neurons and nerve axon myelin” (priority 1999, dated 2004)",
  "tested_on": "B6SJL-TgN(SOD1-G93A)1 Gur strain mice",
  "assay": "Transgenic mouse model of familial amyotrophic lateral sclerosis (limb paralysis, survival)",
  "type": "in vivo",
  "excerpt": "B6SJL-TgN(SOD1-G93A)1 Gur strain mice were obtained from. The Jackson Laboratory, Bar Harbor, Me. The transgene in these mice carries a high copy number of a mutant allele human SOD1 containing the Gly93 →Ala (G93A) substitution (often referred to as G1H). Mice progressively become paralyzed in one or more limbs, with paralysis due to loss of motor neurons from the spinal cord. The mice are generally described in Gurney M E, Pu H, Chiu A Y, Dal Canto M C, Polchow C Y, Alexander D D, Caliendo J, Hentati A, Kwon Y W, Deng H X, Chen W, Zhai P, Sufit R L, Siddique T: Motor neuron degeneration in mice that express a human Cu,Zn superoxide dismutase mutation. Science 264:1772-1775 (1994), and use of these mice as a model of familial amyotrophic lateral sclerosis is described in Chiu A Y, Zhai P, Dal Canto M C, Peters T M, Kwon Y W, Prattis S M, Gurney M E: Age-dependent penetrance of disease in a transgenic mouse model of familial amyotrophic lateral sclerosis. Mol Cell Neurosci 6:349-362 (1995).\nAt 105 days following birth, mouse A began manifesting objective symptoms of limb paralysis. A protocol as described in Table 1 was followed.\nThe thrombopoietin was obtained from Rand D. Systems, Inc. (Minneapolis, Minn.) as carrier-free recombinant thrombopoietin and the thryrotropin was obtained from Ferring Pharmaceuticals; both were administered by intraperitoneal (i.p.) injection. Synthroid®, a form of levothyroxine, was obtained from Flint Pharmaceuticals in 100 μg tablets.\nA litter mate of mouse A, referred to as mouse B, was administered a protocol as described in Table 2, with administration commencing prior to the onset of any objective symptoms.\nA B6SJL-TgN(SOD1-G93A)1Gur strain mouse as described in Example 1 was obtained, referred to as mouse C. Mouse C was administered a protocol as described in Table 3, with administration commencing prior to the onset of any objective symptoms.",
  "key": {"[1]": {"settings": "mouse A, Table 1 protocol, thrombopoietin i.p. days 107, 110, 113"}},
  "data": [
    {"substance": "thrombopoietin", "values": [
      {"measurement": "objective symptoms observed at day 111", "setting": "mouse A, symptomatic from day 105, after thrombopoietin 0.5 cc of 1 μg/cc i.p. on days 107 and 110", "result": "marked improvement"},
      {"measurement": "objective symptoms observed on day 124", "setting": "mouse A, Table 1 protocol", "result": "increasing front limb weakness"},
      {"measurement": "day of death", "setting": "mouse A, Table 1 protocol (thrombopoietin, thyrotropin releasing hormone, Synthroid) started after symptom onset", "result": 126, "unit": "days"},
      {"measurement": "objective symptoms observed on day 122", "setting": "mouse A, Table 1 protocol, Synthroid in drinking water from day 121", "result": "marked improvement in front limbs"},
      {"measurement": "objective symptoms observed by day 118", "setting": "mouse A, Table 1 protocol, after thrombopoietin plus thyrotropin releasing hormone i.p. on day 117", "result": "decreased weakness"},
      {"measurement": "objective symptoms observed at day 113", "setting": "[1]", "result": "shaking resumed"},
      {"measurement": "objective symptoms observed by day 115", "setting": "[1]", "result": "marked hind limb weakness"},
      {"measurement": "objective symptoms observed on day 120", "setting": "mouse A, Table 1 protocol, thrombopoietin i.p. through day 119", "result": "increased mobility"},
      {"measurement": "day of death", "setting": "mouse B, Table 2 protocol", "result": 132, "unit": "days"},
      {"measurement": "delay of onset of objective signs versus litter mate mouse A", "setting": "mouse B, Table 2 protocol", "result": 16, "unit": "days"},
      {"measurement": "objective symptoms observed at day 129", "setting": "mouse B, Table 2 protocol", "result": "posterior limb paralysis"},
      {"measurement": "day of first objective signs (slight posterior weakness)", "setting": "mouse B, Table 2 protocol, thrombopoietin i.p. from day 87, Synthroid in drinking water from day 105, started before symptoms", "result": 121, "unit": "days"},
      {"measurement": "day through which no objective signs of illness were observed", "setting": "mouse C, Table 3 protocol, thrombopoietin i.p. days 80-88, Synthroid in drinking water from day 92, expected onset 91±14 days", "result": "> 110", "unit": "days"}
    ]}
  ]
}
